Experimental data taken from PubChem BioAssay (NCI).
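Method: 48-hour compound exposure of cells in 96-well plates, five concentrations, linear interpolation of endpoints. TGI denotes the concentration required for complete inhibition of growth.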

Assays:
Assay in all cases: inhibition of tumour cell growth, NCI panel, 48 h
SNB-19 CNS = test system: SNB-19 CNS
HCT-116 colon = test system: HCT-116 colon
NCI-H226 lung = test system: NCI-H226 lung
A549 NSCLC = test system: A549 NSCLC
SF-539 CNS = test system: SF-539 CNS
M14 melanoma = test system: M14 melanoma
SF-268 CNS = test system: SF-268 CNS
UO-31 renal = test system: UO-31 renal
HCT-15 colon = test system: HCT-15 colon
EKVX NSCLC = test system: EKVX NSCLC
NCI-H23 lung = test system: NCI-H23 lung
CCRF-CEM leukemia = test system: CCRF-CEM leukemia
KM12 colon = test system: KM12 colon
SNB-75 CNS = test system: SNB-75 CNS
T-47D breast = test system: T-47D breast
U251 CNS = test system: U251 CNS
SK-MEL-5 melanoma = test system: SK-MEL-5 melanoma
ACHN renal = test system: ACHN renal
OVCAR-8 ovarian = test system: OVCAR-8 ovarian
MOLT-4 leukemia = test system: MOLT-4 leukemia
HOP-62 NSCLC = test system: HOP-62 NSCLC
NCI/ADR-RES ovarian = test system: NCI/ADR-RES ovarian
LOX IMVI melanoma = test system: LOX IMVI melanoma
K-562 leukemia = test system: K-562 leukemia
SN12C renal = test system: SN12C renal
NCI-H522 lung = test system: NCI-H522 lung
HL-60(TB) leukemia = test system: HL-60(TB) leukemia
HCC-2998 colon = test system: HCC-2998 colon
UACC-257 melanoma = test system: UACC-257 melanoma
PC-3 prostate = test system: PC-3 prostate
DU-145 prostate = test system: DU-145 prostate
UACC-62 melanoma = test system: UACC-62 melanoma
OVCAR-3 ovarian = test system: OVCAR-3 ovarian
HS 578T breast = test system: HS 578T breast
RXF 393 renal = test system: RXF 393 renal
SF-295 CNS = test system: SF-295 CNS

Q: How did the TGI (SNB-19 CNS) turn out when `Oc1c(C(O)c2ccccn2)ccc2ccccc12` (stereo unspecified) was run?
A: > 100 µM

Q: What about the TGI (HCT-116 colon) of the same compound?
A: > 100 µM

Q: And the TGI (NCI-H226 lung)?
A: > 100 µM

Q: What about the TGI (A549 NSCLC) of the same compound?
A: > 100 µM

Q: And the TGI (SF-539 CNS)?
A: > 100 µM

Q: And the TGI (M14 melanoma)?
A: > 100 µM

Q: And the TGI (SF-268 CNS)?
A: > 100 µM

Q: And the TGI (UO-31 renal)?
A: > 100 µM

Q: What about the TGI (HCT-15 colon) of the same compound?
A: 97 µM

Q: And the TGI (EKVX NSCLC)?
A: > 100 µM

Q: What about the TGI (NCI-H23 lung) of the same compound?
A: > 100 µM

Q: What about the TGI (CCRF-CEM leukemia) of the same compound?
A: > 100 µM

Q: What about the TGI (KM12 colon) of the same compound?
A: > 100 µM

Q: And the TGI (SNB-75 CNS)?
A: > 100 µM

Q: And the TGI (T-47D breast)?
A: > 100 µM

Q: What about the TGI (U251 CNS) of the same compound?
A: > 100 µM

Q: What about the TGI (SK-MEL-5 melanoma) of the same compound?
A: > 100 µM

Q: And the TGI (ACHN renal)?
A: > 100 µM

Q: What about the TGI (OVCAR-8 ovarian) of the same compound?
A: > 100 µM

Q: And the TGI (MOLT-4 leukemia)?
A: > 100 µM

Q: What about the TGI (HOP-62 NSCLC) of the same compound?
A: > 100 µM

Q: What about the TGI (NCI/ADR-RES ovarian) of the same compound?
A: > 100 µM

Q: What about the TGI (LOX IMVI melanoma) of the same compound?
A: > 100 µM

Q: What about the TGI (K-562 leukemia) of the same compound?
A: > 100 µM

Q: And the TGI (SN12C renal)?
A: > 100 µM

Q: And the TGI (NCI-H522 lung)?
A: 74.1 µM

Q: What about the TGI (HL-60(TB) leukemia) of the same compound?
A: 42.1 µM

Q: And the TGI (HCC-2998 colon)?
A: 59.4 µM

Q: What about the TGI (UACC-257 melanoma) of the same compound?
A: > 100 µM

Q: And the TGI (PC-3 prostate)?
A: > 100 µM

Q: And the TGI (DU-145 prostate)?
A: > 100 µM

Q: And the TGI (UACC-62 melanoma)?
A: 46.1 µM

Q: What about the TGI (OVCAR-3 ovarian) of the same compound?
A: > 100 µM

Q: And the TGI (HS 578T breast)?
A: > 100 µM

Q: And the TGI (RXF 393 renal)?
A: > 100 µM

Q: What about the TGI (SF-295 CNS) of the same compound?
A: > 100 µM
